From US10785975B2, “Water and feed antimicrobial preservative” (priority 2009, dated 2020)
Read-outs that look alike come from different tables or passages of the source.

System: Salmonella typhimurium
Assay: Example 2: effect of carbon chain length of individual organic acids on antimicrobial activity in water
Format: cell-based
Parameters: MIC at 4 HR / MIC at 24 FIR: unit not given here
Conditions: for MIC at 4 HR / MIC at 24 FIR: Minimum Inhibitory Concentration of Organic Acids against Salmonella, by linear regression; for MIC at 24 FIR: 24 hours; for killing at […] / killing at 0.05 % / killing at 0.075 % / killing at 0.1 %: Salmonella enterica, TYPHIMURIUM
Procedure: 100 ul of a nutrient broth culture of Salmonella typhimurium was added to each dilution tube. After addition, tubes were vortexed and allowed to stand. At 4 and 24 hours after addition of the inoculum, 100 ul of the solution was plated on agar (triplicate plates). Plates were incubated at 37° C. for 24 hours prior to enumeration. The minimum effective dose of each acid was be determined by linear regression: […]

[1] = Product Conc. 0.025 (% acid solution in water), 4 hr
[2] = Product Conc. 0.025 (% acid solution in water), 24 hr
[3] = Product Conc. 0.05 (% acid solution in water), 4 hr
[4] = Product Conc. 0.05 (% acid solution in water), 24 hr
[5] = Product Conc. 0.075 (% acid solution in water), 4 hr
[6] = Product Conc. 0.075 (% acid solution in water), 24 hr
[7] = Product Conc. 0.1 (% acid solution in water), 4 hr
[8] = Product Conc. 0.1 (% acid solution in water), 24 hr
[9] = Product Conc. 0.025 (% acid solution in water), 4 hr, read-out: Salmonella at time Interval 4 hr % reduction
[10] = Product Conc. 0.025 (% acid solution in water), 24 hr, read-out: Salmonella at time Interval 24 hr % reduction
[11] = Product Conc. 0.05 (% acid solution in water), 4 hr, read-out: Salmonella at time Interval 4 hr % reduction
[12] = Product Conc. 0.05 (% acid solution in water), 24 hr, read-out: Salmonella at time Interval 24 hr % reduction
[13] = Product Conc. 0.075 (% acid solution in water), 4 hr, read-out: Salmonella at time Interval 4 hr % reduction
[14] = Product Conc. 0.075 (% acid solution in water), 24 hr, read-out: Salmonella at time Interval 24 hr % reduction
[15] = Product Conc. 0.1 (% acid solution in water), 4 hr, read-out: Salmonella at time Interval 4 hr % reduction
[16] = Product Conc. 0.1 (% acid solution in water), 24 hr, read-out: Salmonella at time Interval 24 hr % reduction

Compound | MIC at 4 HR (4 hr) | MIC at 24 FIR | Salmonella at time Interval 4 hr cfu/g [1] [cfu/g] | Salmonella at time Interval 24 hr cfu/g [2] [cfu/g] | Salmonella at time Interval 4 hr cfu/g [3] [cfu/g] | Salmonella at time Interval 24 hr cfu/g [4] [cfu/g] | Salmonella at time Interval 4 hr cfu/g [5] [cfu/g] | Salmonella at time Interval 24 hr cfu/g [6] [cfu/g] | Salmonella at time Interval 4 hr cfu/g [7] [cfu/g] | Salmonella at time Interval 24 hr cfu/g [8] [cfu/g] | killing at […] [9] [%] | killing at […] [10] [%] | killing at 0.05 % [11] [%] | killing at 0.05 % [12] [%] | killing at 0.075 % [13] [%] | killing at 0.075 % [14] [%] | killing at 0.1 % [15] [%] | killing at 0.1 % [16] [%] | further results
CCCCC(=O)O [Valeric acid] | 0.174 | 0.070 | 1233 | 533 | 1267 | 73 | 990 | 37 | 657 | 17 | 23 | 69 | 21 | 96 | 38 | 98 | 59 | 99 | 
CCCCCCCCCCCC(=O)O [Lauric acid/KOH, Lauric acid] | 0.072 | <0.025 | 670 | 20 | 0 | 0 | 0 | 0 | 0 | 0 | 58 | 99 | 100 | 100 | 100 | 100 | 100 | 100 | 
CCCCCCC(=O)O [Oenanthic acid] | 0.075 | 0.063 | 1103 | 10 | 0 | 0 | 0 | 0 | 0 | 0 |  |  |  |  |  |  |  |  | Salmonella at time Interval 4 hr % reduction [1]: 31%; Salmonella at time Interval 24 hr % reduction [2]: 99%; Salmonella at time Interval 4 hr % reduction [3]: 100%; Salmonella at time Interval 24 hr % reduction [4]: 100%; Salmonella at time Interval 4 hr % reduction [5]: 100%; Salmonella at time Interval 24 hr % reduction [6]: 100%; Salmonella at time Interval 4 hr % reduction [7]: 100%; Salmonella at time Interval 24 hr % reduction [8]: 100%
